In patent US20110306608A1, “COMPOSITIONS AND METHODS FOR TREATING VASCULAR, AUTOIMMUNE AND INFLAMMATORY DISEASES” (priority 2005, published 2011):

What was measured:
[1] = Serum mycophenolic acid level by commercial assay in mice fed MMF in chow; type: in vivo, mouse
Excerpt: No MPA was detected in the serum of control mice (data not shown).

[2] = test system: endothelial nitric oxide synthase (eNOS) expression; settings: in vitro, cholesterol clamped conditions; cited from earlier work

Compound | average serum mycophenolic acid (MPA) level ([1]; high-dose group (MMF 100 mg/kg/day in high-fat chow)) | average serum mycophenolic acid (MPA) level ([1]; low-dose group (MMF 15 mg/kg/day in high-fat chow)) | upregulation of eNOS expression [2]
COc1c(C)c2c(c(O)c1C/C=C(\C)CCC(=O)O)C(=O)OC2 [MPA, mycophenolic acid] | 3.65 ± 0.3 mg/L | 1.16 ± 0.09 mg/L | 
CC[C@H](C)C(=O)O[C@H]1C[C@@H](C)C=C2C=C[C@H](C)[C@H](CC[C@@H]3C[C@@H](O)CC(=O)O3)[C@H]21 [lovastatin] |  |  | almost fourfold
